Where two headings read alike, the source gives them in different places.
Experiments:
Experiment in all cases: SelectScreen Z-LYTE kinase activity assay (SI Table 6)
Format in all cases: biochemical
[1] = target: protein kinases of the Z-LYTE panel (Homo sapiens, UniProt Q9UM73)
Procedure: (§1) 133 protein kinases and 7 lipid kinases were counterscreened, with 1938 used at 1 μM, using the Adapta, Lantha and Z-LYTE assays (SelectScreen Kinase Profiling Service; Thermofisher – experimental details of these assays can be found here: https://www.thermofisher.com/uk/en/home/industrial/pharma-biopharma/drug-discovery-development/target-and-lead-identification-and-validation/kinasebiology/kinase-activity-assays.html. The tree represention in KinMap[59] generated courtesy of Cell Signaling Technology, Inc. (www.cellsignal.com). mTORC1 (mTOR/RAPTOR/LST8) protein complex and ATM kinase and substrates were produced as previously described[57],[60]. Screening of 1938 was conducted using SuperSep Phos-Tag 50 μmol/l 100 x 100 x 6.6 mm 17-well (192-18001/199-18011) gels. For ATM assays, 100 nM ATM was incubated for 30 min at 30°C with 5 μM GST-p53 and 1 mM ATP, in the absence or presence of 200 μM 1938 in ATM Kinase Buffer (50 mM HEPES pH 7.5, 100 mM NaCl, 10% glycerol, 2 mM […], 5 mM MgCl2). As a positive control for ATM activation, the same reaction was carried out with 100 nM ATM/5 μM GST-p53/1 mM ATP in the presence of 100 nM Mre11-Rad50-Nbs1 (MRN) complex, a known activator of ATM[61]. For mTORC1 assays, 50 nM mTORC1 complex (mTOR/LST8/RAPTOR) was incubated for 3 h at 30°C with 15 μM 4E-BP1, 10 mM MgCl2 and 250 μM ATP, in the absence or presence of 200 μM 1938. As a ‘positive’ control, a higher concentration (150 nM) of mTORC1 complex (mTOR/LST8/RAPTOR) was incubated for 3 h at 30°C with 15 μM 4E-BP1, 10 mM MgCl2 and 250 μM ATP. Kinase reactions were quenched by addition of SDS-PAGE Loading Buffer (as per manufacturer’s instructions) and freezing at -20°C before being run on the Phos-tag gels at 150 V for 90 min. Gels were then stained using InstantBlue™ Coomassie, and quantified using BioRad Image Lab Software. Kinase assays were carried out in triplicate.

[2] = target: T1, protein kinases of the Z-LYTE panel (Homo sapiens, UniProt Q9UQB9)
T1 sequence (Q9UQB9 1-309): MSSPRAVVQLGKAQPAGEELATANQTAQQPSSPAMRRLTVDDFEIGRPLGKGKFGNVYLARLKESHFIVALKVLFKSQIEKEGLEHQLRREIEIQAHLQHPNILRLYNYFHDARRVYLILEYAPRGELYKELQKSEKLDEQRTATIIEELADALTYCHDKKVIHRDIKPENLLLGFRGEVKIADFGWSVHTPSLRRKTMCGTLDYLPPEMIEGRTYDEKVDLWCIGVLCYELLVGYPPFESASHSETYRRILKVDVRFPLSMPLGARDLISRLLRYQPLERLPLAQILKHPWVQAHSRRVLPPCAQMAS
Procedure: as §1

[3] = target: T2, protein kinases of the Z-LYTE panel (Homo sapiens, UniProt P36888)
T2 sequence (P36888 27-993): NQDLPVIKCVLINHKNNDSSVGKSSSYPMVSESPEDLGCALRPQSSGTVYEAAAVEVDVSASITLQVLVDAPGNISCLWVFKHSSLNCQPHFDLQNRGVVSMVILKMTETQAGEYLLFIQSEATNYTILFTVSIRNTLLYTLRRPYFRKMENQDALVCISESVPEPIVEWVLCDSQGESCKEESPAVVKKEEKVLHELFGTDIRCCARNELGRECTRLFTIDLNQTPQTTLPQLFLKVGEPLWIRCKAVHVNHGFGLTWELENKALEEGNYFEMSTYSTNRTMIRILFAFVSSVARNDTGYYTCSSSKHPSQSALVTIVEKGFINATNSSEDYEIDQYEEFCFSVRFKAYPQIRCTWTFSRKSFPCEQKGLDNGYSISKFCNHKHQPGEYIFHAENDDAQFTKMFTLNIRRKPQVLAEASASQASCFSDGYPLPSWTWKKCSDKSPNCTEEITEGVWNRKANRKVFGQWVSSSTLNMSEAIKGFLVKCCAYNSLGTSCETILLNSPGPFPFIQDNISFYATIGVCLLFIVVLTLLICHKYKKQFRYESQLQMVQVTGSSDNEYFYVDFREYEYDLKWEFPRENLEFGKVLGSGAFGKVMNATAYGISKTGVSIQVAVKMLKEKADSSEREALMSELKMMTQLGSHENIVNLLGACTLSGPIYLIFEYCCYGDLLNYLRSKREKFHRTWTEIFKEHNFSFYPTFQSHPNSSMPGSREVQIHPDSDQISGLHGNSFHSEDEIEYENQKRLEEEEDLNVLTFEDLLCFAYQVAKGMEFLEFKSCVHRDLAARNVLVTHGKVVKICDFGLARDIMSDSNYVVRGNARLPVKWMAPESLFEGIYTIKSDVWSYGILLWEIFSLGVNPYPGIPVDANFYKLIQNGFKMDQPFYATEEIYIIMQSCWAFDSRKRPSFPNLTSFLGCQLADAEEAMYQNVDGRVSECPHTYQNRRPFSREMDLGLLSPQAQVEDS
Procedure: as §1

Chain of protein kinases of the Z-LYTE panel (Homo sapiens, UniProt Q9UM73) (Q9UM73 19-1620): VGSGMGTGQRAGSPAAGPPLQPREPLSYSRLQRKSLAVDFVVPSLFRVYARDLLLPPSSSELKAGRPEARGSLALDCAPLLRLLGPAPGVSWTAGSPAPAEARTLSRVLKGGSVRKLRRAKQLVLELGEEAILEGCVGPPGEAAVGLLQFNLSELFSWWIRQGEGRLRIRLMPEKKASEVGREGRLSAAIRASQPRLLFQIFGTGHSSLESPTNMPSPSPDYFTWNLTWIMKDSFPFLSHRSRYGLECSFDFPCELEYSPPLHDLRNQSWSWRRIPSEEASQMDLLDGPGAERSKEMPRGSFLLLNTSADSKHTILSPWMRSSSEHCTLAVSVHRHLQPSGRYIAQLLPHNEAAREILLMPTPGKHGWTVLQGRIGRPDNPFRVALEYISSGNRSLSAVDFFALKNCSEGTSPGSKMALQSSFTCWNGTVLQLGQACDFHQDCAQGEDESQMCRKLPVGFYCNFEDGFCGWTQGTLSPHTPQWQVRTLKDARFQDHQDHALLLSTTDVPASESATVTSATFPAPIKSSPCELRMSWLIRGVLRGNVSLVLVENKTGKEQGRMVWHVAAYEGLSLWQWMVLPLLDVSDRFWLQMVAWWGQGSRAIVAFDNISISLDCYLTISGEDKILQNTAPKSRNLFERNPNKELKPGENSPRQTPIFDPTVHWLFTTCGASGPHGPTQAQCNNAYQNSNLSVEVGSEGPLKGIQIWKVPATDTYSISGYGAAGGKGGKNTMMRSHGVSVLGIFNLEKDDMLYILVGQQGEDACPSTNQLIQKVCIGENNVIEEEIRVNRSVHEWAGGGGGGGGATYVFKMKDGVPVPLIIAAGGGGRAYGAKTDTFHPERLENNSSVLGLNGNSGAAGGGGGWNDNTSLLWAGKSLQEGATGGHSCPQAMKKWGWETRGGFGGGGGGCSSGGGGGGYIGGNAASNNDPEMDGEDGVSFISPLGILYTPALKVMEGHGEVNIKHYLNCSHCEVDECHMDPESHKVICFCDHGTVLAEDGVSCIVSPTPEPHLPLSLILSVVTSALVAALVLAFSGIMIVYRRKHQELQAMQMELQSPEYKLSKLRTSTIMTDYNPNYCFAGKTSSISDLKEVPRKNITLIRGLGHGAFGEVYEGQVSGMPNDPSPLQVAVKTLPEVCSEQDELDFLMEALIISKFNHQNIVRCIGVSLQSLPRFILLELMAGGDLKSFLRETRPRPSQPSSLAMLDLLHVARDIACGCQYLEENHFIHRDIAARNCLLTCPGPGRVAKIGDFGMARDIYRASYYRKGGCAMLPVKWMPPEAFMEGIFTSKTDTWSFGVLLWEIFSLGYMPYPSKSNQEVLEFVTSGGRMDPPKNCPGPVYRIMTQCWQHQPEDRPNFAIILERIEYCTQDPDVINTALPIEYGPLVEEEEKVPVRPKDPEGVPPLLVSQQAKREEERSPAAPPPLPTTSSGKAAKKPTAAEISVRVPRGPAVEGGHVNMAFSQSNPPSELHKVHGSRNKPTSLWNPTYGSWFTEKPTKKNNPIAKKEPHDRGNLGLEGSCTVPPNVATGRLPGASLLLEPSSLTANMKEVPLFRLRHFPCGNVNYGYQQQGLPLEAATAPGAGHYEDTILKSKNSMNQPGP

Work on `CCN1CCN(c2ccc(Nc3cc(Nc4cccc5c4N(C(C)=O)CC5)ccn3)cc2)CC1` [Compound 1938] yielded an inhibition at 1 µM ([1]; read-out: % Inhibition Point 1) of 11%, an inhibition at 1 µM ([1]; read-out: % Inhibition Point 2) of 15% and an inhibition at 1 µM ([1]; read-out: % Inhibition mean) of 13%. For the same compound, the inhibition at 1 µM ([2]; read-out: % Inhibition Point 1) was 39%, the inhibition at 1 µM ([2]; read-out: % Inhibition Point 2) was 35% and the inhibition at 1 µM ([2]; read-out: % Inhibition mean) was 37%. It also gave an inhibition at 1 µM ([3]; read-out: % Inhibition Point 1) of 19%, an inhibition at 1 µM ([3]; read-out: % Inhibition Point 2) of 20% and an inhibition at 1 µM ([3]; read-out: % Inhibition mean) of 19%.
